Measurements from patent US4160829A, “Antibacterial 1,2,4-oxadiazolylacetamido cephalosporins” (Gist-Brocades N.V., priority 1972, dated 1979).
Converted amounts (≈) assume the structure as drawn.

Tests used:
Staph.aureus A 2001 [1] = assay: agar serial dilution test; assay type: cell-based, Staphylococcus aureus; conditions: Staphylococcus aureus, A2001, 24 h, agar serial dilution, 24 hours, 37° C.; read-out: minimal inhibitory concentration (MIC)
Kleb.pneum. A 809 = assay: agar serial dilution test; assay type: cell-based, Klebsiella pneumoniae; conditions: Klebsiella pneumoniae; agar serial dilution, 24 hours, 37° C.; read-out: minimal inhibitory concentration (MIC)
Pseud.aerug. 2396 = assay: agar serial dilution test; assay type: cell-based; conditions: agar serial dilution, 24 hours, 37° C.; read-out: minimal inhibitory concentration (MIC)
Haem.infl. A 1030 = assay: micro serial dilution test; assay type: cell-based; conditions: 18 h, micro serial dilution (in brackets), about 18 hours, 30° C. or 37° C.; read-out: minimal inhibitory concentration (MIC)
Bruc.melit. A 488 = assay: microbe, parasite or virus in culture; assay type: cell-based; conditions: Brucella melitensis, 24 h, read-out: minimal inhibitory concentration (MIC)
Staph.aureus A 2000 [2] = assay: micro serial dilution test; assay type: cell-based, Staphylococcus aureus; conditions: Staphylococcus aureus, A2000, 18 h, micro serial dilution (in brackets), about 18 hours, 30° C. or 37° C.; read-out: minimal inhibitory concentration (MIC)
Esch.coli U 20 = assay: agar serial dilution test; assay type: cell-based, Escherichia coli; conditions: Escherichia coli, U20; agar serial dilution, 24 hours, 37° C.; read-out: minimal inhibitory concentration (MIC)
Prot.mirab. A 1200 = assay: agar serial dilution test; assay type: cell-based, Proteus mirabilis; conditions: Proteus mirabilis, 24 h, agar serial dilution, 24 hours, 37° C.; read-out: minimal inhibitory concentration (MIC)
Prot.morg. 2241 = assay: agar serial dilution test; assay type: cell-based; conditions: 24 h, agar serial dilution, 24 hours, 37° C.; read-out: minimal inhibitory concentration (MIC)
Staph.aureus A 2000 [3] = assay: agar serial dilution test; assay type: cell-based, Staphylococcus aureus; conditions: Staphylococcus aureus, A2000, 24 h, agar serial dilution, 24 hours, 37° C.; read-out: minimal inhibitory concentration (MIC)
Salm.typh. R 127 = assay: agar serial dilution test; assay type: cell-based; conditions: 24 h, 37° C., read-out: minimal inhibitory concentration (MIC)
Staph.aureus A 355 [4] = assay: micro serial dilution test; assay type: cell-based, Staphylococcus aureus; conditions: Staphylococcus aureus, A355; micro serial dilution (in brackets), about 18 hours, 30° C. or 37° C.; penicillinase-producing strain; read-out: minimal inhibitory concentration (MIC)
Strep.haem. A 266 = assay: agar serial dilution test; assay type: cell-based, Streptococcus haemolyticus; conditions: Streptococcus; agar serial dilution, 24 hours, 37° C.; read-out: minimal inhibitory concentration (MIC)
Staph.aureus A 321 = assay: agar serial dilution test; assay type: cell-based, Staphylococcus aureus; conditions: Staphylococcus aureus, A321, 24 h, agar serial dilution, 24 hours, 37° C.; read-out: minimal inhibitory concentration (MIC)
Bac.Subt.ATCC 6633 = assay: agar serial dilution test; assay type: cell-based, Bacillus subtilis; conditions: Bacillus subtilis, ATCC6633, 24 h, agar serial dilution, 24 hours, 37° C.; read-out: minimal inhibitory concentration (MIC)
Past.multo. A 723 = assay: agar serial dilution test; assay type: cell-based, Pasteurella multocida; conditions: Pasteurella multocida; agar serial dilution, 24 hours, 37° C.; read-out: minimal inhibitory concentration (MIC)
Pseud.aerug. H 10 = assay: agar serial dilution test; assay type: cell-based; conditions: agar serial dilution, 24 hours, 37° C.; read-out: minimal inhibitory concentration (MIC)
Salm.dubl. P 43 = assay: agar serial dilution test; assay type: cell-based, Salmonella dublin; conditions: Salmonella enterica; agar serial dilution, 24 hours, 37° C.; read-out: minimal inhibitory concentration (MIC)
Prot.mirab. H 3 = assay: agar serial dilution test; assay type: cell-based, Proteus mirabilis; conditions: Proteus mirabilis; agar serial dilution, 24 hours, 37° C.; read-out: minimal inhibitory concentration (MIC)
[5] = system: Pseud.aerug. Wyeth A 1058; assay: agar serial dilution test; assay type: cell-based; conditions: agar serial dilution, 24 hours, 37° C.; read-out: minimal inhibitory concentration (MIC)
Prot.rettg. A 821 = assay: agar serial dilution test; assay type: cell-based, Proteus rettgeri; conditions: Providencia rettgeri, 24 h, agar serial dilution, 24 hours, 37° C.; read-out: minimal inhibitory concentration (MIC)
Staph.aureus A 2001 [6] = assay: micro serial dilution test; assay type: cell-based, Staphylococcus aureus; conditions: Staphylococcus aureus, A2001, 18 h, micro serial dilution (in brackets), about 18 hours, 30° C. or 37° C.; read-out: minimal inhibitory concentration (MIC)
Shig.equir. T 3 = assay: agar serial dilution test; assay type: cell-based; conditions: 24 h, 37° C., read-out: minimal inhibitory concentration (MIC)
Strep. faec. L 80 = assay: agar serial dilution test; assay type: cell-based, Streptococcus faecalis; conditions: Enterococcus faecalis; agar serial dilution, 24 hours, 37° C.; read-out: minimal inhibitory concentration (MIC)
Prot.mirab. L 93 = assay: agar serial dilution test; assay type: cell-based, Proteus mirabilis; conditions: Proteus mirabilis; agar serial dilution, 24 hours, 37° C.; read-out: minimal inhibitory concentration (MIC)
Dipl.pneum. L 54 = assay: agar serial dilution test; assay type: cell-based, Diplococcus pneumoniae; conditions: Streptococcus pneumoniae; agar serial dilution, 24 hours, 37° C.; read-out: minimal inhibitory concentration (MIC)
Staph.aureus A 355 [7] = assay: agar serial dilution test; conditions: Staphylococcus aureus, A355, 24 h, read-out: minimal inhibitory concentration (MIC), agar serial dilution, 24 hours, 37° C.; penicillinase-producing strain

| SMILES | MIC (Staph.aureus A 2001 [1]) [µg/mL] | MIC (Kleb.pneum. A 809) [µg/mL] | MIC (Pseud.aerug. 2396) [µg/mL] | MIC (Haem.infl. A 1030) [µg/mL] | MIC (Bruc.melit. A 488) [µg/mL] | MIC (Staph.aureus A 2000 [2]) [µg/mL] | MIC (Esch.coli U 20) [µg/mL] | MIC (Prot.mirab. A 1200) [µg/mL] | MIC (Prot.morg. 2241) [µg/mL] | MIC (Staph.aureus A 2000 [3]) [µg/mL] | MIC (Salm.typh. R 127) [µg/mL] | MIC (Staph.aureus A 355 [4]) [µg/mL] | MIC (Strep.haem. A 266) [µg/mL] | MIC (Staph.aureus A 321) [µg/mL] | MIC (Bac.Subt.ATCC 6633) [µg/mL] | MIC (Past.multo. A 723) [µg/mL] | MIC (Pseud.aerug. H 10) [µg/mL] | MIC (Salm.dubl. P 43) [µg/mL] | MIC (Prot.mirab. H 3) [µg/mL] | MIC [5] [µg/mL] | further results |
| --- | --- | --- | --- | --- | --- | --- | --- | --- | --- | --- | --- | --- | --- | --- | --- | --- | --- | --- | --- | --- | --- |
| COCc1noc(CC(=O)N[C@@H]2C(=O)N3[C@@H]2SC(C)(C)[C@@H]3C(=O)O)n1 [Compound A, 6-[(3-methoxymethyl-1,2,4-oxadiazol-5-yl)-acetamido]-penicillanic acid] | 1.5 (≈ 4.05 µM) | > 100 | > 100 | 4 (≈ 10.8 µM) | 0.5 (≈ 1.35 µM) | 90 (≈ 243 µM) | 50 (≈ 135 µM) | 100 (≈ 270 µM) | > 100 | 6 (≈ 16.2 µM) | 25 (≈ 67.5 µM) | 60 (≈ 162 µM) | 0.03 (≈ 0.081 µM) | 0.5 (≈ 1.35 µM) | 0.06 (≈ 0.162 µM) | 1 (≈ 2.7 µM) | > 100 | 12.5 (≈ 33.7 µM) | > 100 | > 100 | MIC (Prot.rettg. A 821): 6 µg/mL (≈ 16.2 µM); MIC (Staph.aureus A 2001 [6]): 3.7 µg/mL (≈ 9.99 µM); MIC (Shig.equir. T 3): 1.5 µg/mL (≈ 4.05 µM); MIC (Strep. faec. L 80): 6 µg/mL (≈ 16.2 µM); MIC (Prot.mirab. L 93): 12.5 µg/mL (≈ 33.7 µM); MIC (Dipl.pneum. L 54): 0.25 µg/mL (≈ 0.675 µM); MIC (Staph.aureus A 355 [7]): 6 µg/mL (≈ 16.2 µM) |
| CC(=O)OCC1=C(C(=O)O)N2C(=O)[C@@H](NC(=O)C(c3ccccc3)c3nc(C)no3)[C@H]2SC1 (stereo partly drawn) [Compound B, 7-[α-phenyl-(3-methyl-1,2,4-oxadiazol-5-yl)-acetamido]-3-acetoxymethyl-3-cephem-4-carboxylic acid] | 1.5 (≈ 3.17 µM) | 6 (≈ 12.7 µM) | > 100 | 1.2 (≈ 2.54 µM) | 1.5 (≈ 3.17 µM) | 1.2 (≈ 2.54 µM) | > 100 | > 100 | > 100 | 1.5 (≈ 3.17 µM) | > 100 | 1.2 (≈ 2.54 µM) | 0.5 (≈ 1.06 µM) | 0.5 (≈ 1.06 µM) | 0.25 (≈ 0.529 µM) | 0.5 (≈ 1.06 µM) | > 100 | > 100 | > 100 | > 100 | MIC (Prot.rettg. A 821): 3 µg/mL (≈ 6.35 µM); MIC (Staph.aureus A 2001 [6]): 1.2 µg/mL (≈ 2.54 µM); MIC (Shig.equir. T 3): > 100 µg/mL; MIC (Strep. faec. L 80): 50 µg/mL (≈ 106 µM); MIC (Prot.mirab. L 93): 25 µg/mL (≈ 52.9 µM); MIC (Dipl.pneum. L 54): 1 µg/mL (≈ 2.12 µM); MIC (Staph.aureus A 355 [7]): 1.5 µg/mL (≈ 3.17 µM) |
| CC1=C(C(=O)O)N2C(=O)[C@@H](NC(=O)Cc3nc(Cc4ccccc4)no3)[C@H]2SC1 [Example 7, 7-[(3-benzyl-1,2,4-oxadiazol-5-yl)-acetamido]-desacetoxycephalosporanic acid] | 6 (≈ 14.5 µM) | 100 (≈ 241 µM) | > 100 | 30 (≈ 72.4 µM) | 25 (≈ 60.3 µM) | 4 (≈ 9.65 µM) | > 100 | > 100 | > 100 | 25 (≈ 60.3 µM) | > 100 | 8 (≈ 19.3 µM) | 25 (≈ 60.3 µM) | 3 (≈ 7.24 µM) | 3 (≈ 7.24 µM) | 25 (≈ 60.3 µM) | > 100 | 100 (≈ 241 µM) | > 100 | > 100 | MIC (Prot.rettg. A 821): > 100 µg/mL; MIC (Staph.aureus A 2001 [6]): 5 µg/mL (≈ 12.1 µM); MIC (Shig.equir. T 3): > 100 µg/mL; MIC (Strep. faec. L 80): 100 µg/mL (≈ 241 µM); MIC (Prot.mirab. L 93): > 100 µg/mL; MIC (Dipl.pneum. L 54): 4 µg/mL (≈ 9.65 µM); MIC (Staph.aureus A 355 [7]): 100 µg/mL (≈ 241 µM) |
